Results from ChEMBL document CHEMBL3351875, “Synthesis of Deuterated Benzopyran Derivatives as Selective COX-2 Inhibitors with Improved Pharmacokinetic Properties” (ACS Med Chem Lett, 2014).

Legend:
[1] = AUC (0 to infinity) in Sprague-Dawley rat at 30 mg/kg, po measured during 1 to 24 hrs by LC-MS method; assay type: ADME, organism-based; design: time infinity, dose 30 mg/kg, route oral; details: plasma
[2] = Tmax in Sprague-Dawley rat at 30 mg/kg, po measured during 1 to 24 hrs by LC-MS method; assay type: ADME, organism-based; design: dose 30 mg/kg, route oral; details: in vivo
[3] = Volume of distribution in Sprague-Dawley rat at 10 mg/kg, iv measured during 1 to 24 hrs by LC-MS method; assay type: ADME, organism-based; design: dose 10 mg/kg, route intravenous; details: in vivo
[4] = Cmax in Sprague-Dawley rat at 10 mg/kg, iv measured during 1 to 24 hrs by LC-MS method; assay type: ADME, organism-based; design: dose 10 mg/kg, route intravenous; details: in vivo
[5] = Half life in Sprague-Dawley rat at 30 mg/kg, po measured during 1 to 24 hrs by LC-MS method; assay type: ADME, organism-based; design: dose 30 mg/kg, route oral; details: in vivo
[6] = Apparent oral clearance in Sprague-Dawley rat at 30 mg/kg, po measured during 1 to 24 hrs by LC-MS method; assay type: ADME, organism-based; design: dose 30 mg/kg, route oral; details: in vivo
[7] = Oral bioavailability in Sprague-Dawley rat at 30 mg/kg measured during 1 to 24 hrs by LC-MS method; assay type: ADME, organism-based; details: in vivo
[8] = AUC (0 to infinity) in Sprague-Dawley rat at 10 mg/kg, iv measured during 1 to 24 hrs by LC-MS method; assay type: ADME, organism-based; design: time infinity, dose 10 mg/kg, route intravenous; details: plasma
Rattus norvegicus [9] = test: Half life in Sprague-Dawley rat at 10 mg/kg, iv measured during 1 to 24 hrs by LC-MS method; assay type: ADME, organism-based; design: dose 10 mg/kg, route intravenous; details: in vivo
Rattus norvegicus [10] = test: Volume of distribution in Sprague-Dawley rat at 30 mg/kg, po measured during 1 to 24 hrs by LC-MS method; assay type: ADME, organism-based; design: dose 30 mg/kg, route oral; details: in vivo
[11] = Cmax in Sprague-Dawley rat at 30 mg/kg, po measured during 1 to 24 hrs by LC-MS method; assay type: ADME, organism-based; design: dose 30 mg/kg, route oral; details: in vivo
[12] = Apparent oral clearance in Sprague-Dawley rat at 10 mg/kg, iv measured during 1 to 24 hrs by LC-MS method; assay type: ADME, organism-based; design: dose 10 mg/kg, route oral; details: in vivo
Rattus norvegicus [13] = test: AUC (0 to infinity) in Sprague-Dawley rat at 5 mg/kg, po measured during 1 to 24 hrs by LC-MS method; assay type: ADME, organism-based, Plasma; design: time infinity, dose 5 mg/kg, route oral; details: in vivo
[14] = Oral bioavailability in Sprague-Dawley rat at 5 mg/kg measured during 1 to 24 hrs by LC-MS method; assay type: ADME, organism-based; details: in vivo
Rattus norvegicus [15] = test: Half life in Sprague-Dawley rat at 2.5 mg/kg, iv measured during 1 to 24 hrs by LC-MS method; assay type: ADME, organism-based; design: dose 2.5 mg/kg, route intravenous; details: in vivo
Rattus norvegicus [16] = test: Antinociceptive activity in orally dosed Sprague-Dawley rat model of carrageenan-induced foot paw hyperalgesia assessed as paw withdrawal latency; assay type: functional, organism-based
[17] = biological target: T1, Prostaglandin G/H synthase 2 (Homo sapiens, UniProt P35354); test: Inhibition of human recombinant COX2 pre-incubated for 15 mins before fluorometric substrate addition by fluorescence based assay
T1 sequence (P35354 whole entry): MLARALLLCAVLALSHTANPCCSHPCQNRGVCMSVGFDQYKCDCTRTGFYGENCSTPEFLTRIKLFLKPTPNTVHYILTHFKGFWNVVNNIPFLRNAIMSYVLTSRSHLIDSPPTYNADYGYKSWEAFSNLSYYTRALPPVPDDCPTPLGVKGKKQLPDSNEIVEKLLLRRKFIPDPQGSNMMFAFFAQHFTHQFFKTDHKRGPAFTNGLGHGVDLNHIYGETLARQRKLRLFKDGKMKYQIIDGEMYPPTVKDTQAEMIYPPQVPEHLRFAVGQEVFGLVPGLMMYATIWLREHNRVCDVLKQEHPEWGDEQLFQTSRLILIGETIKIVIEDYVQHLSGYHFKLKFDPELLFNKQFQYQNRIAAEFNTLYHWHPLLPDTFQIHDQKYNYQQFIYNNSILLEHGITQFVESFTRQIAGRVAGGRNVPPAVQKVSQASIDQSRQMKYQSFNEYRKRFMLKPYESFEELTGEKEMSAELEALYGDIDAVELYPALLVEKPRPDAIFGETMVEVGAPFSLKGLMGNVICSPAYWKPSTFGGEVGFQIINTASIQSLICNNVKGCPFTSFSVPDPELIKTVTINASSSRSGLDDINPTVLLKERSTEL

Rattus norvegicus [18] = test: AUC (0 to infinity) in Sprague-Dawley rat at 2.5 mg/kg, iv measured during 1 to 24 hrs by LC-MS method; assay type: ADME, organism-based, Plasma; design: time infinity, dose 2.5 mg/kg, route intravenous; details: in vivo
Rattus norvegicus [19] = test: Volume of distribution in Sprague-Dawley rat at 5 mg/kg, po measured during 1 to 24 hrs by LC-MS method; assay type: ADME, organism-based; design: dose 5 mg/kg, route oral; details: in vivo
Rattus norvegicus [20] = test: Antiinflammatory activity in orally dosed Sprague-Dawley rat model of carrageenan-induced air pouch inflammation assessed as reduction in PGE2 level by ELISA method; assay type: functional, organism-based
[21] = Cmax in Sprague-Dawley rat at 2.5 mg/kg, iv measured during 1 to 24 hrs by LC-MS method; assay type: ADME, organism-based; design: dose 2.5 mg/kg, route intravenous; details: in vivo
Rattus norvegicus [22] = test: Tmax in Sprague-Dawley rat at 5 mg/kg, po measured during 1 to 24 hrs by LC-MS method; assay type: ADME, organism-based; design: dose 5 mg/kg, route oral; details: in vivo
[23] = Apparent oral clearance in Sprague-Dawley rat at 2.5 mg/kg, iv measured during 1 to 24 hrs by LC-MS method; assay type: ADME, organism-based; design: dose 2.5 mg/kg, route oral; details: in vivo
Rattus norvegicus [24] = test: Antiinflammatory activity in orally dosed Sprague-Dawley rat model of carrageenan-induced foot paw edema assessed as reduction in edema by plethysmometry; assay type: functional, organism-based
Rattus norvegicus [25] = test: Half life in Sprague-Dawley rat at 5 mg/kg, po measured during 1 to 24 hrs by LC-MS method; assay type: ADME, organism-based; design: dose 5 mg/kg, route oral; details: in vivo
[26] = Cmax in Sprague-Dawley rat at 5 mg/kg, po measured during 1 to 24 hrs by LC-MS method; assay type: ADME, organism-based; design: dose 5 mg/kg, route oral; details: in vivo
[27] = Apparent oral clearance in Sprague-Dawley rat at 5 mg/kg, po measured during 1 to 24 hrs by LC-MS method; assay type: ADME, organism-based; design: dose 5 mg/kg, route oral; details: in vivo
[28] = biological target: Prostaglandin G/H synthase 1 (Homo sapiens, UniProt P23219); test: Inhibition of human recombinant COX1 pre-incubated for 15 mins before fluorometric substrate addition by fluorescence based assay
Rattus norvegicus [29] = test: Antiarthritic activity in Lewis rat model of adjuvant-induced arthritis administrated by oral gavage once daily; assay type: functional; details: tested as the 2H-labelled form
[30] = Volume of distribution in Sprague-Dawley rat at 2.5 mg/kg, iv measured during 1 to 24 hrs by LC-MS method; assay type: ADME, organism-based; design: dose 2.5 mg/kg, route intravenous; details: in vivo

Sequence of Prostaglandin G/H synthase 1 (P23219 whole entry): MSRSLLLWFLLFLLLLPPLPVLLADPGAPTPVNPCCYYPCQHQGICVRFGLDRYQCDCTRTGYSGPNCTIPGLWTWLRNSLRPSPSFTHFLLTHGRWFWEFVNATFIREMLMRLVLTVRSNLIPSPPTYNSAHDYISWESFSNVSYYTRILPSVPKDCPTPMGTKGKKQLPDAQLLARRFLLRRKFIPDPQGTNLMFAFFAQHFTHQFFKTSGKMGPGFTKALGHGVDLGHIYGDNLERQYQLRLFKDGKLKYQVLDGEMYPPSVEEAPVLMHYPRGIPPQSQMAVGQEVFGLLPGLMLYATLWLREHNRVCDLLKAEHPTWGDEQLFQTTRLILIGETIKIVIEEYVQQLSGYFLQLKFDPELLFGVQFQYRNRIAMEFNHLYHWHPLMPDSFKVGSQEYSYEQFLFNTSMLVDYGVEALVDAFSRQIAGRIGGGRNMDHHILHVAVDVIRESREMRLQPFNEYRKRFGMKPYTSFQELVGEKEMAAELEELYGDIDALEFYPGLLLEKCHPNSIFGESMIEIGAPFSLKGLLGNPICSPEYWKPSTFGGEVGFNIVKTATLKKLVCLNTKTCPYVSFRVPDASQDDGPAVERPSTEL

## [2H]C([2H])([2H])C([2H])([2H])c1cc(OC(F)(F)F)cc2c1OC(C(F)(F)F)C(C(=O)O)=C2 (stereo not given)
[1]
  AUC(0-inf): 403 µg·h/mL
[2]
  Tmax: 1.25 h
[3]
  Vd: 0.39 L/kg
[4]
  Cmax: 51600 ng/mL
[5]
  half-life: 4.54 h
[6]
  CL/F: 1.25 mL/min/kg
[7]
  bioavailability: 60.2%
[8]
  AUC(0-inf): 223 µg·h/mL
Rattus norvegicus [9]
  t1/2: 5.946 h
Rattus norvegicus [10]
  Vd: 0.491 L/kg
[11]
  Cmax: 33500 ng/mL
[12]
  CL/F: 0.783 mL/min/kg

## Cc1cc(Br)cc2c1OC(C(F)(F)F)C(C(=O)O)=C2 (stereo not given)
Rattus norvegicus [13]
  AUC: 17.19028 µg·h/mL
[14]
  bioavailability: 46.3%
Rattus norvegicus [15]
  t1/2: 0.58 h
Rattus norvegicus [16]
  EC50: 3.52 mg/kg
[17]
  IC50: 28 nM
Rattus norvegicus [18]
  AUC: 14.843535 µg·h/mL
Rattus norvegicus [19]
  Vd: 0.65 L/kg
Rattus norvegicus [20]
  EC50: 0.47 mg/kg
[21]
  Cmax: 38600 ng/mL
Rattus norvegicus [22]
  Tmax: 0.438 h
[23]
  CL/F: 2.87 mL/min/kg
Rattus norvegicus [24]
  EC50: 3.47 mg/kg
Rattus norvegicus [25]
  t1/2: 1.51 h
[26]
  Cmax: 11500 ng/mL
[27]
  CL/F: 4.97 mL/min/kg
[28]
  IC50: > 100000 nM
Rattus norvegicus [29]
  inhibition: Dose-dependent effect
[30]
  Vd: 0.15 L/kg
